ChEMBL document CHEMBL1137599, “Discovery of uracil-based histone deacetylase inhibitors able to reduce acquired antifungal resistance and trailing growth in Candida albicans” (Bioorg Med Chem Lett, 2007)
Values after ≈ are worked out from the molar mass of the structure shown.

What was measured:
Histone deacetylase HD2 = target: T1, Histone deacetylase HD2 (Zea mays, UniProt Q94F81); test: Inhibition of maize HD2 (mean)
T1 sequence (Q94F81 whole entry): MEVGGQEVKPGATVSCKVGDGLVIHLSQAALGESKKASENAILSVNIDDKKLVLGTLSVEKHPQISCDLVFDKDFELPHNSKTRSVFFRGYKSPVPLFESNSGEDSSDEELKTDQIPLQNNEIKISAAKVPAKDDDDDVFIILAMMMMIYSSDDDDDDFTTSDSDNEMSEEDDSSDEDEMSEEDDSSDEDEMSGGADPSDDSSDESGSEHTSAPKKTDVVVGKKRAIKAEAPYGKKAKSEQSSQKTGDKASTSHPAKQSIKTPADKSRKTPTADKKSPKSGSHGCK

Histone deacetylase HD1B = Histone deacetylase HD1B (Zea mays, UniProt Q9ZTP8); test: Inhibition of maize HD1-B (mean)
Histone deacetylase 1 = Histone deacetylase 1 (Mus musculus, UniProt O09106); test: Inhibition of mouse HDAC1 (mean)
Candida albicans [1] = test: Effect of compound on Candida albicans sensitivity to Fluconazole: Minimum inhibitory concentration required to inhibit the growth of 50% of isolates after 24h.; format: functional
Candida albicans [2] = test: Effect of compound on Candida albicans sensitivity to Fluconazole: Minimum inhibitory concentration required to inhibit the growth of 90% of isolates after 24h.; format: functional
Candida albicans [3] = test: microbe, parasite or virus in culture; format: functional; details: 48 h
Description: Effect of compound on Candida albicans sensitivity to Fluconazole: Minimum inhibitory concentration required to inhibit the growth of 50% of isolates after 48h.

Candida albicans [4] = test: Effect of compound on Candida albicans sensitivity to Fluconazole: Minimum inhibitory concentration required to inhibit the growth of 90% of isolates after 48h.; format: functional
[5] = target: Histone deacetylase HD1-A (Zea mays); test: Inhibition of maize HD1-A (mean)

Sequence of Histone deacetylase HD1B (Q9ZTP8 whole entry): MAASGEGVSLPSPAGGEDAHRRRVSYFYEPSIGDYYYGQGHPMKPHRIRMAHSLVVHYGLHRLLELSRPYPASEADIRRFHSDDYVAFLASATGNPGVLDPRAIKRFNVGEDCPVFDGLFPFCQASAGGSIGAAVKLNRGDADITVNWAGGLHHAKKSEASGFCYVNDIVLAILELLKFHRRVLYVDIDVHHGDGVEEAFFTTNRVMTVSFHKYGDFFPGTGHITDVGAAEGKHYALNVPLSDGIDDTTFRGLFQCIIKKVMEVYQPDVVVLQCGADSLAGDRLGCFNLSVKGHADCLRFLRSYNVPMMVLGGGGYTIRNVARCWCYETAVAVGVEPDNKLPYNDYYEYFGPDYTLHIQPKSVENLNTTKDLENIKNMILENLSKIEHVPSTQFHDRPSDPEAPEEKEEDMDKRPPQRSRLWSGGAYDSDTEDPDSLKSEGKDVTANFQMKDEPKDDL
Sequence of Histone deacetylase 1 (O09106 whole entry): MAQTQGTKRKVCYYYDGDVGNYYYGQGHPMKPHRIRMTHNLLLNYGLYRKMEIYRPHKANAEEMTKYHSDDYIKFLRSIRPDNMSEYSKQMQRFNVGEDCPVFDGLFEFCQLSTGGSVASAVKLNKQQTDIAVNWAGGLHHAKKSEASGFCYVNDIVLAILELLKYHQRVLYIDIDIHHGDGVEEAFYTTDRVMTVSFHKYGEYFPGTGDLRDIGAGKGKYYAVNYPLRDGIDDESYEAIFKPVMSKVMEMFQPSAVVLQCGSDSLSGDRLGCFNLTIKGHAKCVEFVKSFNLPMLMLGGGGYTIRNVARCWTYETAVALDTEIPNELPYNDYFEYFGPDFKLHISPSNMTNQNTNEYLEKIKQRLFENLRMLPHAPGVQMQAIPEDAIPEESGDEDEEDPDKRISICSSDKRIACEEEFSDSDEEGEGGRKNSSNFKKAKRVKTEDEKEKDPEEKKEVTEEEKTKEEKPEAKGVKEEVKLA

SMILES	IC50 (Histone deacetylase HD2) [mg/L]	IC50 (Histone deacetylase HD1B) [mg/L]	IC50 (Histone deacetylase 1) [mg/L]	MIC50 (Candida albicans [1]) [mg/L]	MIC90 (Candida albicans [2]) [mg/L]	MIC50 (Candida albicans [3]) [mg/L]	MIC90 (Candida albicans [4]) [mg/L]	IC50 [5] [mg/L]
O=C(CCCCCCC(=O)Nc1ccccc1)NO [VORINOSTAT]	0.013 (≈ 0.0492 µM)	0.007 (≈ 0.0265 µM)						
O=C(CCCCSc1nc(-c2ccc(Cl)cc2)cc(=O)[nH]1)NO	0.006 (≈ 0.017 µM)	0.004 (≈ 0.0113 µM)	0.018 (≈ 0.0509 µM)	0.5 (≈ 1.41 µM)	2 (≈ 5.65 µM)	1 (≈ 2.83 µM)	16 (≈ 45.2 µM)	0.001 (≈ 0.00283 µM)
O=C(CCCCCSc1nc(Cc2ccccc2)cc(=O)[nH]1)NO				0.5 (≈ 1.44 µM)	4 (≈ 11.5 µM)	0.625 (≈ 1.8 µM)	12 (≈ 34.5 µM)	
OC(Cn1cncn1)(Cn1cncn1)c1ccc(F)cc1F [FLUCONAZOLE]				1.45 (≈ 4.73 µM)	3.6 (≈ 11.8 µM)	2.5 (≈ 8.16 µM)	11 (≈ 35.9 µM)	
O=C(CCCCSc1nc(-c2ccccc2)cc(=O)[nH]1)NO				0.5 (≈ 1.57 µM)	4 (≈ 12.5 µM)	0.5 (≈ 1.57 µM)	12 (≈ 37.6 µM)	
O=C(CCCCSc1nc(-c2cccc(Cl)c2)cc(=O)[nH]1)NO	0.006 (≈ 0.017 µM)	0.004 (≈ 0.0113 µM)	0.013 (≈ 0.0367 µM)	0.44 (≈ 1.24 µM)	3.42 (≈ 9.67 µM)	1 (≈ 2.83 µM)	8 (≈ 22.6 µM)	
